Results: patent publication US8389523B2, “Substituted quinoxaline and an agrochemical composition thereof” (Kumiai Chemical Industry Co., Ltd., priority 2007, dated 2013)

Legend:
Format in all cases: in vivo
Set-up in all cases: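 grade 0 to 5 of growth suppression where 5 is 90% or more and 0 below 10%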
Amaranthus viridis L. [1] = assay: Herbicidal effects in upland field soil treatment (Test Example 2); details: 1000 g active ingredient per hectare, 21st day after treatment, criteria of Table 138
In short: (§1)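 Soil-applied before emergence at 1000 g a.i./ha as water-diluted wettable powder; greenhouse-grown plants rated for herbicidal damage 21 days post-treatment.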

[2] = test system: Abutilon theophrasti medicus; assay: as above; details: 1000 g active ingredient per hectare, 21st day after treatment, criteria of Table 138
In short: as §1

[3] = test system: Monochoria vaginalis (Burm. f.) Presl var. plantaginea (Roxb.) Solms-Laub.; assay: Herbicidal effects in paddy field soil treatment (Test Example 1); details: paddy field soil treatment; 1000 g of the active ingredient per hectare; wettable powder added dropwise on water surface; 21st day after treatment
In short: (§2)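 Flooded-paddy soil treatment under greenhouse conditions: a diluted wettable powder at 1000 g a.i./ha went onto the water surface one day post-sowing, with 3 cm standing water, and weed control was graded on a scoring scale 21 days after treatment.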

[4] = test system: Echinochloa oryzicola Vasing; assay: as above; details: paddy field soil treatment; 1000 g of the active ingredient per hectare; wettable powder added dropwise on water surface; 21st day after treatment
In short: as §2

[5] = test system: Scirpus juncoides Roxb. var. ohwianus. T. Koyama; assay: as above; details: paddy field soil treatment; 1000 g of the active ingredient per hectare; wettable powder added dropwise on water surface; 21st day after treatment
In short: as §2

[6] = test system: Echinochloa crus-galli (L.) P. Beauv. var. crus-galli; assay: Herbicidal effects in upland field foliar treatment (Test Example 3); details: 1000 g of the active ingredient per hectare, 14th day after the treatment, wettable powder, criteria of Table 138
In short: (§3)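 Post-emergence foliar treatment: two-week-old seedlings from upland field soil received 1000 g a.i./ha (wettable powder, 1000 L water/ha), then returned to the greenhouse for scoring 14 days later.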

Amaranthus viridis L. [7] = assay: as above; details: 1000 g of the active ingredient per hectare, 14th day after the treatment, wettable powder, criteria of Table 138
In short: as §3

[8] = test system: Abutilon theophrasti medicus; assay: as above; details: 1000 g of the active ingredient per hectare, 14th day after the treatment, wettable powder, criteria of Table 138
In short: as §3

Row | Compound | herbicidal effect (index) on Amaranthus viridis L. (Amaranthus viridis L. [1]) | herbicidal effect (index) on Abutilon theophrasti medicus [2] | Herbicidal effects index, Monochoria vaginalis (Burm. f.) Presl var. plantaginea (Roxb.) Solms-Laub. [3] | Herbicidal effects index, Echinochloa oryzicola Vasing [4] | Herbicidal effects index, Scirpus juncoides Roxb. var. ohwianus. T. Koyama [5] | herbicidal effects on Echinochloa crus-galli (L.) P. Beauv. var. crus-galli [6] | herbicidal effects on Amaranthus viridis L. (Amaranthus viridis L. [7]) | herbicidal effects on Abutilon theophrasti medicus [8]
1 | CC1COc2cc(-n3c(=O)c(C(=O)C4=C(O)CCCC4=O)nc4ccccc43)ccc2O1 (stereo not drawn) [II-231] | 5 | 4 | 5 | 5 | 5 | 5 | 5 | 5
2 | O=C1CCCC(O)=C1C(=O)c1nc2c(F)cccc2n(-c2ccccc2)c1=O [II-233] | 5 | 5 | 5 | 5 | 5 | 5 | 5 | 5
3 | O=C1CCCC(O)=C1C(=O)c1nc2cc(F)ccc2n(-c2ccccc2)c1=O [II-237] | 5 | 5 | 5 | 5 | 5 | 5 | 5 | 5
4 | COc1cc(-n2c(=O)c(C(=O)C3=C(O)CCCC3=O)nc3cc(F)ccc32)cc(OC)c1OC [II-238] | 5 | 5 | 5 | 5 | 5 | 5 | 5 | 5
5 | O=C1CCCC(O)=C1C(=O)c1nc2cc(F)ccc2n(-c2ccc3c(c2)OCO3)c1=O [II-239] | 5 | 5 | 5 | 5 | 5 | 4 | 5 | 5
6 | O=C1CCCC(O)=C1C(=O)c1nc2ccc(F)cc2n(-c2ccccc2)c1=O [II-241] | 5 | 5 | 5 | 5 | 5 | 5 | 5 | 5
7 | O=C1CCCC(O)=C1C(=O)c1nc2ccc(F)cc2n(-c2ccc3c(c2)OCCO3)c1=O [II-242] | 5 | 4 | 5 | 5 | 5 | 5 | 5 | 4
8 | O=C1CCCC(O)=C1C(=O)c1nc2cccc(F)c2n(-c2ccccc2)c1=O [II-243] | 5 | 5 | 5 | 5 | 5 | 5 | 5 | 5
9 | Cc1cccc2c1nc(C(=O)C1=C(O)CCCC1=O)c(=O)n2-c1ccccc1 [II-244] | 5 | 5 | 5 | 5 | 5 | 5 | 5 | 5
